Measurements as given in patent US9206173B2, “Heterocyclic compounds for the treatment of stress-related conditions” (OTSUKA PHARMACEUTICAL CO., LTD., priority 2009, dated 2015).
Where a name gives a salt, the structure may show the parent alone.

Experiments:
human GPR10 [1] = target: T1, human GPR10 (Homo sapiens (Human), UniProt P49683); assay: Inhibitory activity on binding of [3H]-PrRP to GPR10 (HEK 293 cell membrane fraction); details: [3H]-PrRP 1 nM, human GPR10-expressing HEK 293 cell membrane fraction; Ki from IC50 by Cheng-Prussoff formula
T1 sequence (P49683 whole entry): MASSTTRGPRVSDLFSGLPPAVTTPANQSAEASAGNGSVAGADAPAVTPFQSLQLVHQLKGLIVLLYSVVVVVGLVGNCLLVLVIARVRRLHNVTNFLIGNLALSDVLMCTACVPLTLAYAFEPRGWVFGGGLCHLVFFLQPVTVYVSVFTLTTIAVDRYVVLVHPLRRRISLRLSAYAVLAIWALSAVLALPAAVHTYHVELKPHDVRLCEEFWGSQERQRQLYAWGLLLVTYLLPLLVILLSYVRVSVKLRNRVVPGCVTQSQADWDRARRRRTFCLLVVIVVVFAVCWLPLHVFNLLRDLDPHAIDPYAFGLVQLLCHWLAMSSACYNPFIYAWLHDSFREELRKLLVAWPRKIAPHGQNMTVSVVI
In short: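 Competition with [3H]-PrRP (1 nM final) for membranes from human GPR10-expressing HEK293 cells, 90 min at room temperature in HEPES/EDTA buffer pH 7.4; filtration and scintillation counting.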

human GPR10 [2] = target: T1, human GPR10; assay: Antagonistic activity on PrRP-induced intracellular calcium mobilization in human GPR10-expressing HEK293 cells; assay type: cell-based; details: PrRP 1 nM-induced intracellular calcium mobilization, Fluo-8
Experimental: Pharmacological Test 2 Antagonistic Activity on GPR10 Using Human GPR10-Expressing HEK293 Cells.
Antagonistic activity of test compounds on PrRP-induced intracellular calcium mobilization was evaluated using GPR10-expressing HEK293 cells.
HEK293 cells expressing human GPR10 were maintained in Dulbecco's Modified Eagles' medium supplemented with 10% fetal bovine serum, 1% penicillin-streptomycin and 20 mM HEPES at 37° C. in a 5% CO2 incubator. GPR10-expressing HEK293 cells were placed in poly-D-lysine coated 96-well culture plates and cultured for 18-24 hr before the test at a density of 3×10^4 cells/well. […] The cells were incubated with test compounds for 15 min at room temperature, and then PrRP (the final concentration, 1 nM) was added into the medium. The changes in intracellular calcium-dependent fluorescence were monitored using a fluorescence imaging plate reader (FDSS3000, Hamamatsu Photonics K.K.). Fluo-8 fluorescence was measured with excitation at 490 nm and emission at 520 nm. The calcium-dependent fluorescence intensity was calculated by subtracting basal intensity (average intensity for 30 sec before agonist stimulation) from peak intensity for 60 sec after PrRP-stimulation, and then IC50 values were determined by nonlinear curve-fitting program, GraphPad Prism 5.

Structure (SMILES): CN(C)n1c(NCc2ccc(C(F)(F)F)c(F)c2)nc2c(c1=O)CN(C(=O)c1ccc(Cl)cc1)CC2.Cl
- melting point: 122 to 124 °C

Structure (SMILES): CCC(Nc1nc2c(c(=O)n1OC)CN(C(=O)c1ccc(Cl)cc1)CC2)c1ccc(Cl)cc1.Cl (stereo not shown) [Example 2421, 6-(4-chlorobenzoyl)-2-[1-(4-chlorophenyl)propylamino]-3-methoxy-5,6,7,8-tetrahydro-3H-pyrido[4,3-d]pyrimidin-4-one hydrochloride]
- Ki (human GPR10 [1]): 44 nM
- melting point: 118.1 to 123.7 °C
- IC50 (human GPR10 [2]): 1570 nM

Structure (SMILES): C[C@H](Nc1nc2c(c(=O)n1N(C)C)CN(C(=O)c1ccc(Cl)cc1)CC2)c1ccc(Cl)cc1.Cl [Example 8, 6-(4-chlorobenzoyl)-2-(S)-[1-(4-chlorophenyl)ethylamino]-3-dimethylamino-5,6,7,8-tetrahydropyrido[4,3-d]pyrimidin-4-(3H)-one hydrochloride]
- Ki (human GPR10 [1]): 25 nM
- melting point: 121 to 123 °C
- IC50 (human GPR10 [2]): 253 nM

Structure (SMILES): CC#CCn1c(N[C@@H](C)c2ccc(C(F)(F)F)cc2)nc2c(c1=O)CN(C(=O)c1ccc(C#N)cc1)CC2 [Example 2407, 4-{3-(2-butynyl)-4-oxo-2-[(S)-1-(4-trifluoromethylphenyl)ethylamino]-3,5,7,8-tetrahydro-4H-pyrido[4,3-d]pyrimidine-6-carbonyl}benzonitrile hydrochloride]
- Ki (human GPR10 [1]): 8 nM
- IC50 (human GPR10 [2]): 207 nM

Structure (SMILES): C#CCCn1c(N[C@@H](C)c2ccc(C(F)(F)F)cc2)nc2c(c1=O)CN(C(=O)c1ccc(C#N)cc1F)CC2 [Example 2435, 4-{3-(3-butynyl)-4-oxo-2-[(S)-1-(4-trifluoromethylphenyl)ethylamino]-3,5,7,8-tetrahydro-4H-pyrido[4,3-d]pyrimidine-6-carbonyl}-3-fluorobenzonitrile]
- Ki (human GPR10 [1]): 2 nM
- IC50 (human GPR10 [2]): 68 nM

Structure (SMILES): COn1c(N[C@@H](C)c2ccc(C(F)(F)F)cc2)nc2c(c1=O)CN(C(=O)c1ccc(C)c(C)c1)CC2 [Example 2452, 6-(3,4-dimethylbenzoyl)-3-methoxy-2-[(S)-1-(4-trifluoromethylphenyl)ethylamino]-5,6,7,8-tetrahydro-3H-pyrido[4,3-d]pyrimidin-4-one]
- Ki (human GPR10 [1]): 4 nM
- IC50 (human GPR10 [2]): 1030 nM

Structure (SMILES): COn1c(N[C@@H](C)c2ccc(C(F)(F)F)cc2)nc2c(c1=O)CN(C(=O)CCc1ccc(Cl)cc1)CC2 [Example 2391, 6-[3-(4-chlorophenyl)propionyl]-3-methoxy-2-[(S)-1-(4-trifluoromethylphenyl)ethylamino]-5,6,7,8-tetrahydro-3H-pyrido[4,3-d]pyrimidin-4-one]
- Ki (human GPR10 [1]): 134 nM
- IC50 (human GPR10 [2]): 3900 nM

Structure (SMILES): CC#CCn1c(N[C@@H](C)c2ccc(C(F)(F)F)cc2)nc2c(c1=O)CN(C(=O)c1ccc3c(c1)CCC(=O)N3)CC2 [Example 2412, 3-(2-butynyl)-6-(2-oxo-1,2,3,4-tetrahydro-quinoline-6-carbonyl)-2-[(S)-1-(4-trifluoromethylphenyl)ethylamino]-5,6,7,8-tetrahydro-3H-pyrido[4,3-d]pyrimidin-4-one hydrochloride]
- Ki (human GPR10 [1]): 8 nM
- IC50 (human GPR10 [2]): 259 nM

Structure (SMILES): C[C@H](Nc1nc2c(c(=O)n1N(C)C)CN(C(=O)COc1ccc(Cl)cc1)CC2)c1ccc(Cl)cc1 [Example 2431, 6-[2-(4-chlorophenoxy)acetyl]-2-[(S)-1-(4-chlorophenyl)ethylamino]-3-dimethylamino-5,6,7,8-tetrahydro-3H-pyrido[4,3-d]pyrimidin-4-one]
- Ki (human GPR10 [1]): 207 nM
- IC50 (human GPR10 [2]): 3600 nM

Structure (SMILES): C[C@H](Nc1nc2c(c(=O)n1N(C)C)CN(C(=O)c1ccc(C#N)cc1F)CC2)c1ccc(C(F)(F)F)cc1 [Example 5, 6-(4-cyano-2-fluorobenzoyl)-3-dimethylamino-2-(S)-{1-[4-(trifluoromethyl)phenyl]ethylamino}-5,6,7,8-tetrahydropyrido[4,3-d]pyrimidin-4-(3H)-one hydrochloride]
- Ki (human GPR10 [1]): 8 nM
- IC50 (human GPR10 [2]): 46 nM

Structure (SMILES): CC[C@@H](Nc1nc2c(c(=O)n1OC)CN(C(=O)c1ccc(Cl)cc1)CC2)c1ccc(Cl)cc1.Cl
- melting point: 127 to 129.5 °C

Structure (SMILES): C[C@@H](Nc1nc2c(c(=O)n1N1CCCC1)CN(C(=O)c1ccc(C#N)cc1F)CC2)c1ccc(C(F)(F)F)cc1 [Example 166]
- Ki (human GPR10 [1]): 6 nM
- IC50 (human GPR10 [2]): 298 nM

Structure (SMILES): C#CCn1c(N[C@@H](C)c2ccc(C(F)(F)F)cc2)nc2c(c1=O)CN(C(=O)c1ccc(C#N)cc1F)CC2 [Example 1, 6-(4-cyano-2-fluorobenzoyl)-3-propargyl-2-(S)-{1-[4-(trifluoromethyl)phenyl]ethylamino}-5,6,7,8-tetrahydropyrido[4,3-d]pyrimidin-4-(3H)-one hydrochloride]
- Ki (human GPR10 [1]): 5 nM
- IC50 (human GPR10 [2]): 42 nM

Structure (SMILES): CCOn1c(N[C@H](C)c2ccc(C(F)(F)F)cc2)nc2c(c1=O)CN(C(=O)c1ccc(-c3cnco3)cc1)CC2 [Example 104]
- Ki (human GPR10 [1]): 20 nM
- IC50 (human GPR10 [2]): 158 nM

Structure (SMILES): CCOn1c(N[C@H](C)c2ccc(C(F)(F)F)cc2)nc2c(c1=O)CN(C(=O)c1cc3cccnc3s1)CC2 [Example 121]
- Ki (human GPR10 [1]): 17 nM
- IC50 (human GPR10 [2]): 1680 nM

Structure (SMILES): COn1c(NC(c2ccc(Cl)cc2)C(C)C)nc2c(c1=O)CN(C(=O)c1ccc(Cl)cc1)CC2 (stereo not shown) [Example 2441, 6-(4-chlorobenzoyl)-2-[1-(4-chlorophenyl)-2-methylpropylamino]-3-methoxy-5,6,7,8-tetrahydro-3H-pyrido[4,3-d]pyrimidin-4-one]
- Ki (human GPR10 [1]): 37 nM
- IC50 (human GPR10 [2]): 4490 nM

Structure (SMILES): C[C@H](Nc1nc2c(c(=O)n1N(C)C)CN(C(=O)c1c(F)cc(F)cc1F)CC2)c1ccc(C(F)(F)F)cc1 [Example 2484, 3-dimethylamino-6-(2,4,6-trifluorobenzoyl)-2-[(S)-1-(4-trifluoromethylphenyl)ethylamino]-5,6,7,8-tetrahydro-3H-pyrido[4,3-d]pyrimidin-4-one hydrochloride]
- Ki (human GPR10 [1]): 6 nM
- IC50 (human GPR10 [2]): 216 nM

Structure (SMILES): COn1c(N[C@@H](C)c2ccc(C(F)(F)F)cc2)nc2c(c1=O)CN(C(=O)c1ccc(OC(F)(F)F)cc1)CC2 [Example 63]
- Ki (human GPR10 [1]): 16 nM
- IC50 (human GPR10 [2]): 686 nM

Structure (SMILES): CC#CCn1c(N[C@@H](C)c2ccc(C(F)(F)F)cc2)nc2c(c1=O)CN(C(=O)c1cc3ccccn3n1)CC2 [Example 2411, 3-(2-butynyl)-6-(pyrazolo[1,5-a]pyridine-2-carbonyl)-2-[(S)-1-(4-trifluoromethylphenyl)ethylamino]-5,6,7,8-tetrahydro-3H-pyrido[4,3-d]pyrimidin-4-one hydrochloride]
- Ki (human GPR10 [1]): 20 nM
- IC50 (human GPR10 [2]): 776 nM

Structure (SMILES): COn1c(N[C@@H](C)c2ccc(C(F)(F)F)cc2)nc2c(c1=O)CN(C(=O)c1ccc(Cl)s1)CC2 [Example 2405, 6-(5-chlorothiophene-2-carbonyl)-3-methoxy-2-[(S)-1-(4-trifluoromethylphenyl)ethylamino]-5,6,7,8-tetrahydro-3H-pyrido[4,3-d]pyrimidin-4-one]
- Ki (human GPR10 [1]): 15 nM
- IC50 (human GPR10 [2]): 8790 nM

Structure (SMILES): CC#CCn1c(N[C@@H](C)c2ccc(C(F)(F)F)cc2)nc2c(c1=O)CN(C(=O)c1ccc3cccnc3c1)CC2 [Example 2417, 3-(2-butynyl)-6-(quinoline-7-carbonyl)-2-[(S)-1-(4-trifluoromethylphenyl)ethylamino]-5,6,7,8-tetrahydro-3H-pyrido[4,3-d]pyrimidin-4-one dihydrochloride]
- Ki (human GPR10 [1]): 17 nM
- IC50 (human GPR10 [2]): 780 nM

Structure (SMILES): C[C@H](Nc1nc2c(c(=O)n1N1CCOCC1)CN(C(=O)c1ccc(C#N)cc1)CC2)c1ccc(C(F)(F)F)cc1 [Example 2432, 4-{3-morpholin-4-yl-4-oxo-2-[(S)-1-(4-trifluoromethylphenyl)ethylamino]-3,5,7,8-tetrahydro-4H-pyrido[4,3-d]pyrimidine-6-carbonyl}benzonitrile hydrochloride]
- Ki (human GPR10 [1]): 36 nM
- IC50 (human GPR10 [2]): 238 nM

Structure (SMILES): C[C@H](Nc1nc2c(c(=O)n1N1CCOCC1)CN(C(=O)c1ccc(C#N)cc1F)CC2)c1ccc(C(F)(F)F)cc1 [Example 2463, 3-fluoro-4-{3-morpholin-4-yl-4-oxo-2-[(S)-1-(4-trifluoromethylphenyl)ethylamino]-3,5,7,8-tetrahydro-4H-pyrido[4,3-d]pyrimidine-6-carbonyl}benzonitrile hydrochloride]
- Ki (human GPR10 [1]): 3 nM
- IC50 (human GPR10 [2]): 187 nM

Structure (SMILES): COn1c(N[C@@H](C)c2ccc(C(F)(F)F)cc2)nc2c(c1=O)CN(C(=O)COc1ccc(Cl)cc1)CC2 [Example 2389, 6-[2-(4-chlorophenoxy)acetyl]-3-methoxy-2-[(S)-1-(4-trifluoromethylphenyl)ethylamino]-5,6,7,8-tetrahydro-3H-pyrido[4,3-d]pyrimidin-4-one]
- Ki (human GPR10 [1]): 8 nM
- IC50 (human GPR10 [2]): 678 nM

Structure (SMILES): CC#CCn1c(N[C@@H](C)c2ccc(C(F)(F)F)cc2)nc2c(c1=O)CN(C(=O)c1cnc3ccccc3c1)CC2 [Example 2446, 3-(2-butynyl)-6-(quinoline-3-carbonyl)-2-[(S)-1-(4-trifluoromethylphenyl)ethylamino]-5,6,7,8-tetrahydro-3H-pyrido[4,3-d]pyrimidin-4-one]
- Ki (human GPR10 [1]): 28 nM
- IC50 (human GPR10 [2]): 2790 nM

Structure (SMILES): C#CCn1c(N[C@@H](C)c2ccc(C(F)(F)F)cc2)nc2c(c1=O)CN(C(=O)c1ccc(Cl)cc1)CC2 [Example 2, 6-(4-chlorobenzoyl)-3-propargyl-2-(S)-{1-[4-(trifluoromethyl)phenyl]ethylamino}-5,6,7,8-tetrahydropyrido[4,3-d]pyrimidin-4-(3H)-one hydrochloride]
- Ki (human GPR10 [1]): 29 nM
- IC50 (human GPR10 [2]): 378 nM
